Where “and” joins values, the source holds several entries; their conditions need not be identical. Equal values may be shown once.
Biological target: Furin (Homo sapiens, UniProt P09958)
Assay: furin inhibitor potency, dose response, biochemical, fluorescence intensity, IC50 (AID 463182)

Chain of Furin (P09958 whole entry): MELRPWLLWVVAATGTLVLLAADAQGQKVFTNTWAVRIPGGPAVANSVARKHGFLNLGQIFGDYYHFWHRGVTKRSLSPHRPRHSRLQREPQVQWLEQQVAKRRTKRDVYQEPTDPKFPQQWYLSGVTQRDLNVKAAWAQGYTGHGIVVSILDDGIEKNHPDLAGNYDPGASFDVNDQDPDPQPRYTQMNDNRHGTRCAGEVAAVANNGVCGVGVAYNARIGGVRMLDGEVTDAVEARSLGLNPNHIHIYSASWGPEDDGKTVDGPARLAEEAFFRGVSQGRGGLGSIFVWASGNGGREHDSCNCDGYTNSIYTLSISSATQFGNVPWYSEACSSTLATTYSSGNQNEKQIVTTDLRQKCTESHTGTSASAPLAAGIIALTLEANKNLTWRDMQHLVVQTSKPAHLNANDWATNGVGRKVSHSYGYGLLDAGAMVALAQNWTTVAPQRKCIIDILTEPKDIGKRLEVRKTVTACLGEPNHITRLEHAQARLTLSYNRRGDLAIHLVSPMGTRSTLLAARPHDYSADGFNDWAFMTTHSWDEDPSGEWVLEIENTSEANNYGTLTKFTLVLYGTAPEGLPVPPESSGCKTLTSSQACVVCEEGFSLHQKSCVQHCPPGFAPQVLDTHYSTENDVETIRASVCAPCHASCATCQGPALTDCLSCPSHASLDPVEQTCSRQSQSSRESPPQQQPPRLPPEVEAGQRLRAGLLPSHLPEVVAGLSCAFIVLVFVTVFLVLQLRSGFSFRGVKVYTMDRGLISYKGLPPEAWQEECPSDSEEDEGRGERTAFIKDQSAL

SMILES | IC50
CC1(C)CC(=O)C(=CNc2cccnc2)C(=O)C1 | > 50 µM
CCCOP(=O)(c1ccc(N(C)C)cc1)C(Nc1ccccc1)c1ccc(N(C)C)cc1 (centres undefined) | > 50 µM
Cc1cccc(-n2c(O)c(C=CC=Nc3ccccc3)c(=O)[nH]c2=O)c1 [(5Z)-1-(3-methylphenyl)-5-[(E)-3-phenylazanylprop-2-enylidene]-1,3-diazinane-2,4,6-trione] | > 50 µM
Cc1ccccc1-n1c(O)c(C=Nc2ccc(N(C)C)cc2)c(=O)[nH]c1=O [SMR000102641] | > 50 µM
CC1(C)CC(=O)C(=CNn2cnc3ccccc3c2=O)C(=O)C1 [5,5-Dimethyl-2-[(4-oxo-4H-quinazolin-3-ylamino)-methylene]-cyclohexane-1,3-dione] | > 50 µM
Cc1cccc(C=C2SC(NN=C3CC4CCC3(C)C4(C)C)=NC2=O)c1 (centres undefined) [SMR000159419] | > 50 µM
CSc1nc(N)c(N=Nc2ccc([As](=O)(O)O)cc2)c(O)n1 [[4-[(2Z)-2-(4-azanyl-2-methylsulfanyl-6-oxidanylidene-pyrimidin-5-ylidene)hydrazinyl]phenyl]arsonic acid] | > 50 µM
Cc1cccc(NC=C2C(=O)CC(C)(C)CC2=O)n1 | > 50 µM
CCN1CCS/C1=C\C=C\C1=[N+](CC)CCS1 [3-ethyl-2-[(E,3E)-3-(3-ethylthiazolidin-2-ylidene)prop-1-enyl]-2-thiazolin-3-ium;iodide] | 33.8 µM and 31.5 µM
